19 compounds from US20240417370A1, “LIPIDS FOR USE IN LIPID NANOPARTICLE FORMULATIONS” (Acuitas Therapeutics, Inc., priority 2023, published 2024) can be followed below.

In the assay the test system is human IgG in mouse serum. The assay can be described thus: Immunoglobulin G (IgG) mRNA in vivo evaluation using lipid nanoparticle compositions. The arrangement: species or system mice. The note with it: LNP-formulated lipid, tail vein injection, μg IgG/mL serum 24 hours after administration; for Serum IgG @ 0.3 mg/kg: 0.3 mg mRNA/kg; for Serum IgG @ 1.0 mg/kg: 1.0 mg mRNA/kg. The method, then: A lipid of structure (I), DSPC, cholesterol and PEG-lipid are solubilized in ethanol at a molar ratio of 50:10:38.5:1.5 or 47.5:10:40.7:1.8. Lipid nanoparticles (LNP) are prepared at a total lipid to mRNA weight ratio of approximately 10:1 to 40:1. Briefly, the mRNA is diluted to 0.2 mg/mL in 10 to 50 mM citrate buffer, pH 4 to 6 or 10 to 25 mM acetate buffer, pH 4 to 6. Syringe pumps are used to mix the ethanolic lipid solution with the mRNA aqueous solution at a ratio of about 1:5 to 1:3 (vol/vol) with total flow rates above 15 mL/min. The ethanol is then removed, and the external buffer replaced with PBS by dialysis. Finally, the lipid nanoparticles are filtered through a 0.2 µm pore sterile filter.
Studies are performed in 6-8-week-old CD-1/ICR mice (Envigo, Charles River, or Inotiv) according to guidelines established by an institutional animal care committee (ACC) and the Canadian Council on Animal Care (CCAC). Varying doses of mRNA-lipid nanoparticle are systemically administered by tail vein injection and animals euthanized at a specific time point (e.g., 24 hours) post-administration. The whole blood is collected, and the serum subsequentially separated by centrifuging the tubes of the whole blood at 2000×g for 10 minutes at 4° C. and stored at −80° C. until use for analysis.
For immunoglobulin G (IgG) ELISA (Life Diagnostics Human IgG ELISA kit), the serum samples are diluted at 100 to 20,000 folds with 1× diluent solution. 100 μL of diluted serum is dispensed into anti-human IgG coated 96-well plate in duplicate alongside human IgG standards and incubated in a plate shaker at 150 rpm at 25° C. for 45 minutes. The wells are washed 5 times with 1× wash solution using a plate washer (400 μL/well). 100 μL of HRP conjugate is added into each well and incubated in a plate shaker at the same condition above. The wells are washed 5 times again with 1× wash solution using a plate washer (400 μL/well). 100 μL of TMB reagent is added into each well and incubated in a plate shaker at the same condition above. The reaction is stopped by adding 100 μL of Stop solution to each well. The absorbance is read at 450 nm (A450) with a microplate reader. The amount of human IgG in mouse serum is determined by plotting A450 values for the assay standard against human IgG concentration.
Representative compounds of the disclosure shown in Table 2 were formulated using the following molar ratio: 50% cationic lipid/10% distearoylphosphatidylcholine (DSPC)/38.5% Cholesterol/1.5% PEG lipid 2-[2-(ω-methoxy(polyethyleneglycol2000)ethoxy]-N,N-ditetradecylacetamide) or 47.5% cationic lipid/10% DSPC/40.7% Cholesterol/1.8% PEG lipid. Relative activity was determined by measuring luciferase expression in the liver 4 hours following administration via tail vein injection as described in Example 1 or by measuring the amount of human IgG in mouse serum as described in example 2. The activity was compared at a dose of 1.0 or 0.5 or 0.3 mg mRNA/kg and expressed as ng luciferase/g liver measured 4 hours after administration, as described in Example 1 or as μg IgG/mL serum measured 24 hours after administration, as described in Example 2. Compound numbers in Table 2 refer to the compound numbers of Table 1.

With `CCCCCCCCCCN(CCCCCCCCCC)C(=O)CCCCCCCN(CCCCCCCC(=O)N(CCCCCCCCCC)CCCCCCCCCC)[C@H]1CC[C@H](O)CC1` [(1R, 4R) I-9, 8,8′-(((1R,4R)-4-hydroxycyclohexyl)azanediyl)bis(N,N-didecyloctanamide)], the “Serum IgG @ 0.3 mg/kg” value is 45.52 ± 6.25 µg/mL and the “Serum IgG @ 1.0 mg/kg” value was found to be 204.57 ± 48.15 µg/mL.

Regarding `CCCCCCCCCCN(CCCCCCCCCC)C(=O)CCCCCCCN(CCCCCCCC(=O)N(CCCCCCCCCC)CCCCCCCCCC)[C@H]1C[C@H](CO)C1` [(1R, 3R) I-24, 8,8′-(((1R,3R)-3-(hydroxymethyl)cyclobutyl)azanediyl)bis(N,N-didecyloctanamide)], the “Serum IgG @ 0.3 mg/kg” value was 6.93 ± 2.48 µg/mL and the “Serum IgG @ 1.0 mg/kg” value is 19.77 ± 5.43 µg/mL.

In the case of `CCCCCCCCCCN(CCCCCCCCCC)C(=O)C(F)CCCCCCN(CCCCCCC(F)C(=O)N(CCCCCCCCCC)CCCCCCCCCC)[C@H]1CC[C@H](O)CC1` (stereo partly drawn) [(1R, 4R) I-49, 8,8′-(((1r,4r)-4-hydroxycyclohexyl)azanediyl)bis(N,N-didecyl-2-fluorooctanamide)], the “Serum IgG @ 0.3 mg/kg” value came out at 28.94 ± 13.21 µg/mL and the “Serum IgG @ 1.0 mg/kg” value was found to be 161.09 ± 11.20 µg/mL.

Turning to `CCCCCCCCCCN(CCCCCCCCCC)C(=O)CCCCCCCN(CCCCCCCC(=O)N(CCCCCCCCCC)CCCCCCCCCC)[C@H]1CC[C@](C)(O)CC1` [(1R, 4R) I-25, 8,8′-(((1R,4R)-4-hydroxy-4-methylcyclohexyl)azanediyl)bis(N,N-didecyloctanamide)], the “Serum IgG @ 0.3 mg/kg” value came to 14.03 ± 2.71 µg/mL and the “Serum IgG @ 1.0 mg/kg” value stood at 105.77 ± 19.44 µg/mL.

As for `CCCCCCCCCCN(CCCCCCCCCC)C(=O)CCCCCCCN(CCCCCCCC(=O)N(CCCCCCCCCC)CCCCCCCCCC)C1CCCC1O` (racemic) [(rac)-(1RS, 2SR) I-48, 8,8′-(((1s,2r)-2-hydroxycyclopentyl)azanediyl)bis(N,N-didecyloctanamide)], the “Serum IgG @ 0.3 mg/kg” value was 43.32 ± 11.04 µg/mL and the “Serum IgG @ 1.0 mg/kg” value is 161.75 ± 26.50 µg/mL.

On to `CCCCCCCCCCN(CCCCCCCCCC)C(=O)C(F)CCCCCCN(CCCCCCC(F)C(=O)N(CCCCCCCCCC)CCCCCCCCCC)CC[C@H]1C[C@@H](O)C1` (stereo partly drawn) [(1S, 3R) I-19, 8,8′-((2-((1S,3R)-3-hydroxycyclobutyl)ethyl)azanediyl)bis(N,N-didecyl-2-fluorooctanamide)], for which the “Serum IgG @ 0.3 mg/kg” value stood at 30.68 ± 8.05 µg/mL and the “Serum IgG @ 1.0 mg/kg” value stood at 267.70 ± 45.90 µg/mL.

Turning to `CCCCCCCCCCN(CCCCCCCCCC)C(=O)CCCCCCCN(CCCCCCCC(=O)N(CCCCCCCCCC)CCCCCCCCCC)C[C@H]1C[C@H]1CO` (racemic) [(rac)-(1RS, 2SR) I-45, 8,8′-((((1s,2r)-2-(hydroxymethyl)cyclopropyl)methyl)azanediyl)bis(N,N-didecyloctanamide)], the “Serum IgG @ 0.3 mg/kg” value turned out to be 15.84 ± 3.20 µg/mL.

On to `CCCCCCCCCCN(CCCCCCCCCC)C(=O)CCCCCCCN(CCCCCCCC(=O)N(CCCCCCCCCC)CCCCCCCCCC)[C@H]1CCC[C@H]1O` [(1S, 2R) I-15, 8,8′-(((1S,2R)-2-hydroxycyclopentyl)azanediyl)bis(N,N-didecyloctanamide)], for which the “Serum IgG @ 0.3 mg/kg” value was 33.97 ± 18.40 µg/mL and the “Serum IgG @ 1.0 mg/kg” value is 225.79 ± 54.78 µg/mL.

Turning to `CCCCCCCCCCN(CCCCCCCCCC)C(=O)CCCCCCCN(CCCCCCCC(=O)N(CCCCCCCCCC)CCCCCCCCCC)[C@H]1CC[C@@H](O)CC1` [(1S, 4S) I-9, 8,8′-(((1s,4s)-4-hydroxycyclohexyl)azanediyl)bis(N,N-didecyloctanamide)], the “Serum IgG @ 0.3 mg/kg” value is 97.57 ± 19.26 µg/mL and the “Serum IgG @ 1.0 mg/kg” value is 257.42 ± 91.86 µg/mL.

Turning to `CCCCCCCCCCN(CCCCCCCCCC)C(=O)CCCCCCCN(CCCCCCCC(=O)N(CCCCCCCCCC)CCCCCCCCCC)[C@H]1CCCC[C@H]1O` [(1S, 2R) I-16, 8,8′-(((1S,2R)-2-hydroxycyclohexyl)azanediyl)bis(N,N-didecyloctanamide)], the “Serum IgG @ 0.3 mg/kg” value is 19.42 ± 7.21 µg/mL and the “Serum IgG @ 1.0 mg/kg” value turned out to be 88.40 ± 26.36 µg/mL.

`CCCCCCCCCCN(CCCCCCCCCC)C(=O)CCCCCCCN(CCCCCCCC(=O)N(CCCCCCCCCC)CCCCCCCCCC)[C@@H]1CC[C@@H](O)C1` (racemic) [(rac)-(1RS, 3RS) I-14, 8,8′-(((1r,3r)-3-hydroxycyclopentyl)azanediyl)bis(N,N-didecyloctanamide); 8,8′-(((1s,3s)-3-hydroxycyclopentyl)azanediyl)bis(N,N-didecyloctanamide)]: the “Serum IgG @ 0.3 mg/kg” value was determined as 11.48 ± 1.87 µg/mL and the “Serum IgG @ 1.0 mg/kg” value is 45.96 ± 11.03 µg/mL.

As to `CCCCCCCCCCN(CCCCCCCCCC)C(=O)CCCCCCCN(CCCCCCCC(=O)N(CCCCCCCCCC)CCCCCCCCCC)[C@@H]1CCC[C@H]1O` [(1R, 2R) I-48, 8,8′-(((1r,2r)-2-hydroxycyclopentyl)azanediyl)bis(N,N-didecyloctanamide)], the “Serum IgG @ 0.3 mg/kg” value turned out to be 25.27 ± 7.50 µg/mL and the “Serum IgG @ 1.0 mg/kg” value was found to be 92.5 ± 20.18 µg/mL.

As to `CCCCCCCCCCCCN(CCCCCC)C(=O)CCCCCCCN(CCCCCCCC(=O)N(CCCCCCCCCC)CCCCCCCCCC)[C@H]1CC[C@@H](O)CC1` [(1S, 4S) I-56, N,N-didecyl-8-((8-(dodecyl(hexyl)amino)-8-oxooctyl)((1s,4s)-4-hydroxycyclohexyl)amino)octanamide], the “Serum IgG @ 0.3 mg/kg” value was 52.9 ± 17.00 µg/mL.

With `CCCCCCCCCCN(CCCCCCCCCC)C(=O)CCCCCCCN(CCCCCCCC(=O)N(CCCCCCCCCC)CCCCCCCCCC)[C@H]1CC[C@@H](CO)CC1` [(1S, 4S) I-23, 8,8′-(((1S,4S)-4-(hydroxymethyl)cyclohexyl)azanediyl)bis(N,N-didecyloctanamide)], the “Serum IgG @ 0.3 mg/kg” value was 34.48 ± 9.25 µg/mL and the “Serum IgG @ 1.0 mg/kg” value amounted to 273.72 ± 52.70 µg/mL.

As to `C=CCCCCCCCCN(CCCCCCCCC=C)C(=O)CCCCCCCN(CCCCCCCC(=O)N(CCCCCCCCC=C)CCCCCCCCC=C)[C@H]1CC[C@@H](O)CC1` [(1S, 4S) I-53, 8,8′-(((1s,4s)-4-hydroxycyclohexyl)azanediyl)bis(N,N-di(dec-9-en-1-yl)octanamide)], the “Serum IgG @ 0.3 mg/kg” value came to 81.56 ± 44.40 µg/mL.

As for `CCCCCCCCCCN(CCCCCCCCCC)C(=O)CCCCCCCN(CCCCCCCC(=O)N(CCCCCCCCCC)CCCCCCCCCC)C1CC2(CC(O)C2)C1` (stereo not drawn) [Compound I-36, 8,8′-((6-hydroxyspiro[3.3]heptan-2-yl)azanediyl)bis(N,N-didecyloctanamide)], the “Serum IgG @ 0.3 mg/kg” value is 25.76 ± 8.65 µg/mL and the “Serum IgG @ 1.0 mg/kg” value is 171.89 ± 45.93 µg/mL.

Take `CCCCCCCCCCN(CCCCCCCCN(CCCCCCCCN(CCCCCCCCCC)C(=O)CCCCCCCCC)C[C@H]1C[C@@H](O)C1)C(=O)CCCCCCCCC` [(1S, 3S) I-22, N,N′-(((((1S,3S)-3-hydroxycyclobutyl)methyl)azanediyl)bis(octane-8,1-diyl))bis(N-decyldecanamide)]: the “Serum IgG @ 0.3 mg/kg” value is 50.48 ± 11.93 µg/mL.

Regarding `CCCCCCCCCCN(CCCCCCCCCC)C(=O)CCCCCCCN(CCCCCCCC(=O)N(CCCCCCCCCC)CCCCCCCCCC)C1CCC[C@H]1O` (mixture of isomers) [(rac)-(1RS, 2RS) I-48, 8,8′-(((1s,2s)-2-hydroxycyclopentyl)azanediyl)bis(N,N-didecyloctanamide)], the “Serum IgG @ 0.3 mg/kg” value is 32.85 ± 6.90 µg/mL and the “Serum IgG @ 1.0 mg/kg” value amounted to 216.8 ± 46.48 µg/mL.

`CCCCCCCCCCCCN(CCCCCCCC)C(=O)CCCCCCCN(CCCCCCCC(=O)N(CCCCCCCCCC)CCCCCCCCCC)[C@H]1CC[C@@H](O)CC1` [(1S, 4S) I-55, N,N-didecyl-8-((8-(dodecyl(octyl)amino)-8-oxooctyl)((1s,4s)-4-hydroxycyclohexyl)amino)octanamide]: the “Serum IgG @ 0.3 mg/kg” value worked out at 72.2 ± 14.87 µg/mL.
